molecular target: human Gal-3 (hGal-3) (Homo sapiens (Human), UniProt P17931); experiment: competitive binding assay: binding of biotinylated hGal-3 to microplate-adsorbed asialofetuin (ASF), spectrophotometric; conditions: Activity on hGal-3; mean values of several measurements
Protocol: Evaluation of Compound Inhibitory Activity (IC50)
The inhibitory activity of compounds is determined in competitive binding assays. This spectrophotometric assay measures the binding of biotinylated human Gal-3 (hGal-3) or human Gal-1 (hGal-1), respectively, to a microplate-adsorbed glycoprotein, asialofetuin (ASF) (Proc Natl Acad Sci USA. 2013 Mar. 26; 110(13):5052-7.). Alternatively, and preferably, a human Gal-1 version in which all six cysteines are substituted by serines may be used.
Briefly, compounds are serially diluted in DMSO (working dilutions). ASF-coated 384 well plates are supplemented with 22.8 μL/well of biotinylated hGal-3 or hGal-1 in assay buffer (i.e. 300-1000 ng/mL biotinylated hGal-3 or hGal-1) to which 1.2 μL of compound working dilutions are added and mixed.
Plates are incubated for 3 hours at 4° C., then washed with cold assay buffer (3×50 uL), incubated for 1 hour with 25 μL/well of a streptavidin-peroxidase solution (diluted in assay buffer to 80 ng/mL) at 4° C., followed by further washing steps with assay buffer (3×50 uL). Finally, 25 μL/well of ABTS substrate is added.
The calculated IC50 values may fluctuate depending on the daily assay performance. Fluctuations of this kind are known to those skilled in the art. IC50 values from several measurements are given as mean values.

Sequence of human Gal-3 (hGal-3) (P17931 whole entry): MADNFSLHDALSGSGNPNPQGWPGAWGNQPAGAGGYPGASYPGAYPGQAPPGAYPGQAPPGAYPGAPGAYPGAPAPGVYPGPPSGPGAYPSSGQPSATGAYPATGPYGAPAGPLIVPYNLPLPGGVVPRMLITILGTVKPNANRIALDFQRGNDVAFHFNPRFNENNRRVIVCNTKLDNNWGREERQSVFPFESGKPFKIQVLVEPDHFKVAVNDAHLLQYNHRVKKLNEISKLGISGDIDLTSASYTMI

IC50 [nM] | Structure (SMILES)
36.5 | CO[C@@H]1[C@@H](n2cc(-c3cc(F)c(F)c(F)c3)nn2)[C@@H](O)[C@@H](CO)O[C@H]1C(=O)N(c1cccc(Cl)c1)[C@H]1CCC[C@@H]1O [Example 1.1.1, (2R,3R,4S,5R,6R)—N-(3-chlorophenyl)-5-hydroxy-N-((1S,2S)-2-hydroxycyclopentyl)-6-(hydroxymethyl)-3-methoxy-4-(4-(3,4,5-trifluorophenyl)-1H-1,2,3-triazol-1-yl)tetrahydro-2H-pyran-2-carboxamide]
34.8 | CO[C@@H]1[C@@H](n2cc(-c3cc(F)c(F)c(F)c3)nn2)[C@@H](O)[C@@H](CO)O[C@H]1C(=O)N(c1cc(C)cc(Cl)c1)[C@H]1CCC[C@@H]1O [Example 1.1.3, (2R,3R,4S,5R,6R)-N-(3-chloro-5-methylphenyl)-5-hydroxy-N-((1S,2S)-2-hydroxycyclopentyl)-6-(hydroxymethyl)-3-methoxy-4-(4-(3,4,5-trifluorophenyl)-1H-1,2,3-triazol-1-yl)tetrahydro-2H-pyran-2-carboxamide]
27.3 | CO[C@@H]1[C@@H](n2cc(-c3cc(F)c(F)c(F)c3)nn2)[C@@H](O)[C@@H](CO)O[C@H]1C(=O)N(c1cc(Cl)cc(C#N)c1)[C@H]1CCC[C@@H]1O [Example 1.1.4, (2R,3R,4S,5R,6R)-N-(3-chloro-5-cyanophenyl)-5-hydroxy-N-((1S,2S)-2-hydroxycyclopentyl)-6-(hydroxymethyl)-3-methoxy-4-(4-(3,4,5-trifluorophenyl)-1H-1,2,3-triazol-1-yl)tetrahydro-2H-pyran-2-carboxamide]
23 | CO[C@@H]1[C@@H](n2cc(-c3cc(F)c(F)c(F)c3)nn2)[C@@H](O)[C@@H](CO)O[C@H]1C(=O)N(c1cc(Br)cc(C#N)c1)[C@H]1CCC[C@@H]1O [Example 1.1.5, (2R,3R,4S,5R,6R)-N-(3-bromo-5-cyanophenyl)-5-hydroxy-N-((1S,2S)-2-hydroxycyclopentyl)-6-(hydroxymethyl)-3-methoxy-4-(4-(3,4,5-trifluorophenyl)-1H-1,2,3-triazol-1-yl)tetrahydro-2H-pyran-2-carboxamide]
98.8 | CO[C@@H]1[C@@H](n2cc(-c3cc(F)c(F)c(F)c3)nn2)[C@@H](O)[C@@H](CO)O[C@H]1C(=O)N(c1cc(Br)cc(C#N)c1)[C@@H]1CCC[C@H]1O [Example 1.1.5R, (2R,3R,4S,5R,6R)-N-(3-bromo-5-cyanophenyl)-5-hydroxy-N-((1R,2R)-2-hydroxycyclopentyl)-6-(hydroxymethyl)-3-methoxy-4-(4-(3,4,5-trifluorophenyl)-1H-1,2,3-triazol-1-yl)tetrahydro-2H-pyran-2-carboxamide]
42.4 | CO[C@@H]1[C@@H](n2cc(-c3cc(F)c(F)c(F)c3)nn2)[C@@H](O)[C@@H](CO)O[C@H]1C(=O)N(c1cccc(I)c1)[C@H]1CCC[C@@H]1O [Example 1.1.6, (2R,3R,4S,5R,6R)-5-hydroxy-N-((1S,2S)-2-hydroxycyclopentyl)-6-(hydroxymethyl)-N-(3-iodophenyl)-3-methoxy-4-(4-(3,4,5-trifluorophenyl)-1H-1,2,3-triazol-1-yl)tetrahydro-2H-pyran-2-carboxamide]
261 | CO[C@@H]1[C@@H](n2cc(-c3cc(F)c(F)c(F)c3)nn2)[C@@H](O)[C@@H](CO)O[C@H]1C(=O)N(c1cccc(I)c1)[C@@H]1CCC[C@H]1O [Example 1.1.6R, (2R,3R,4S,5R,6R)-5-hydroxy-N-((1R,2R)-2-hydroxycyclopentyl)-6-(hydroxymethyl)-N-(3-iodophenyl)-3-methoxy-4-(4-(3,4,5-trifluorophenyl)-1H-1,2,3-triazol-1-yl)tetrahydro-2H-pyran-2-carboxamide]
78.8 | CO[C@@H]1[C@@H](n2cc(-c3cc(F)c(F)c(F)c3)nn2)[C@@H](O)[C@@H](CO)O[C@H]1C(=O)N(c1cccc(Br)c1)[C@H]1CCC[C@@H]1O [Example 1.1.10, (2R,3R,4S,5R,6R)-N-(3-bromophenyl)-5-hydroxy-N-((1S,2S)-2-hydroxycyclopentyl)-6-(hydroxymethyl)-3-methoxy-4-(4-(3,4,5-trifluorophenyl)-1H-1,2,3-triazol-1-yl)tetrahydro-2H-pyran-2-carboxamide]
376 | CO[C@@H]1[C@@H](n2cc(-c3cc(F)c(F)c(F)c3)nn2)[C@@H](O)[C@@H](CO)O[C@H]1C(=O)N(c1cccc(Br)c1)[C@@H]1CCC[C@H]1O [Example 1.1.10R, (2R,3R,4S,5R,6R)-N-(3-bromophenyl)-5-hydroxy-N-((1R,2R)-2-hydroxycyclopentyl)-6-(hydroxymethyl)-3-methoxy-4-(4-(3,4,5-trifluorophenyl)-1H-1,2,3-triazol-1-yl)tetrahydro-2H-pyran-2-carboxamide]
31 | CO[C@@H]1[C@@H](n2cc(-c3cc(F)c(F)c(F)c3)nn2)[C@@H](O)[C@@H](CO)O[C@H]1C(=O)N(c1cc(Br)cc(Br)c1)[C@H]1CCC[C@@H]1O [Example 1.1.11, (2R,3R,4S,5R,6R)-N-(3,5-dibromophenyl)-5-hydroxy-N-((1S,2S)-2-hydroxycyclopentyl)-6-(hydroxymethyl)-3-methoxy-4-(4-(3,4,5-trifluorophenyl)-1H-1,2,3-triazol-1-yl)tetrahydro-2H-pyran-2-carboxamide]
390 | CO[C@@H]1[C@@H](n2cc(-c3cc(F)c(F)c(F)c3)nn2)[C@@H](O)[C@@H](CO)O[C@H]1C(=O)N(c1cc(Br)cc(Br)c1)[C@@H]1CCC[C@H]1O [Example 1.1.11R, (2R,3R,4S,5R,6R)-N-(3,5-dibromophenyl)-5-hydroxy-N-((1R,2R)-2-hydroxycyclopentyl)-6-(hydroxymethyl)-3-methoxy-4-(4-(3,4,5-trifluorophenyl)-1H-1,2,3-triazol-1-yl)tetrahydro-2H-pyran-2-carboxamide]
34.7 | CO[C@@H]1[C@@H](n2cc(-c3cc(F)c(F)c(F)c3)nn2)[C@@H](O)[C@@H](CO)O[C@H]1C(=O)N(c1cc(C)cc(Br)c1)[C@H]1CCC[C@@H]1O [Example 1.1.12, (2R,3R,4S,5R,6R)-N-(3-bromo-5-methylphenyl)-5-hydroxy-N-((1S,2S)-2-hydroxycyclopentyl)-6-(hydroxymethyl)-3-methoxy-4-(4-(3,4,5-trifluorophenyl)-1H-1,2,3-triazol-1-yl)tetrahydro-2H-pyran-2-carboxamide]
348 | CO[C@@H]1[C@@H](n2cc(-c3cc(F)c(F)c(F)c3)nn2)[C@@H](O)[C@@H](CO)O[C@H]1C(=O)N(c1cc(C)cc(Br)c1)[C@@H]1CCC[C@H]1O [Example 1.1.12R, (2R,3R,4S,5R,6R)-N-(3-bromo-5-methylphenyl)-5-hydroxy-N-((1R,2R)-2-hydroxycyclopentyl)-6-(hydroxymethyl)-3-methoxy-4-(4-(3,4,5-trifluorophenyl)-1H-1,2,3-triazol-1-yl)tetrahydro-2H-pyran-2-carboxamide]
146 | CO[C@@H]1[C@@H](n2cc(-c3cc(F)cc(F)c3)nn2)[C@@H](O)[C@@H](CO)O[C@H]1C(=O)N(c1cc(Br)cc(C#N)c1)[C@H]1CCC[C@@H]1O [Example 1.2.5, (2R,3R,4S,5R,6R)-N-(3-bromo-5-cyanophenyl)-4-(4-(3,5-difluorophenyl)-1H-1,2,3-triazol-1-yl)-5-hydroxy-N-((1S,2S)-2-hydroxycyclopentyl)-6-(hydroxymethyl)-3-methoxytetrahydro-2H-pyran-2-carboxamide]
450 | CO[C@@H]1[C@@H](n2cc(-c3cc(F)cc(F)c3)nn2)[C@@H](O)[C@@H](CO)O[C@H]1C(=O)N(c1cc(Br)cc(C#N)c1)[C@@H]1CCC[C@H]1O [Example 1.2.5R, (2R,3R,4S,5R,6R)-N-(3-bromo-5-cyanophenyl)-4-(4-(3,5-difluorophenyl)-1H-1,2,3-triazol-1-yl)-5-hydroxy-N-((1R,2R)-2-hydroxycyclopentyl)-6-(hydroxymethyl)-3-methoxytetrahydro-2H-pyran-2-carboxamide]
29.5 | COc1cc(-c2cn([C@H]3[C@@H](O)[C@@H](CO)O[C@@H](C(=O)N(c4cc(Cl)cc(Cl)c4)[C@H]4CCC[C@@H]4O)[C@@H]3OC)nn2)cc(F)c1F [Example 1.3.2, (2R,3R,4S,5R,6R)-N-(3,5-dichlorophenyl)-4-(4-(3,4-difluoro-5-methoxyphenyl)-1H-1,2,3-triazol-1-yl)-5-hydroxy-N-((1S,2S)-2-hydroxycyclopentyl)-6-(hydroxymethyl)-3-methoxytetrahydro-2H-pyran-2-carboxamide]

Structure (SMILES) | IC50 [nM]
CO[C@@H]1[C@@H](n2cc(-c3cc(F)c(F)c(F)c3)nn2)[C@@H](O)[C@@H](CO)O[C@H]1C(=O)N(c1cc(Cl)cc(Cl)c1)[C@H]1CCC[C@@H]1O [Example 1.1.2, (2R,3R,4S,5R,6R)-N-(3,5-dichlorophenyl)-5-hydroxy-N-((1S,2S)-2-hydroxycyclopentyl)-6-(hydroxymethyl)-3-methoxy-4-(4-(3,4,5-trifluorophenyl)-1H-1,2,3-triazol-1-yl)tetrahydro-2H-pyran-2-carboxamide] | 37.4
CO[C@@H]1[C@@H](n2cc(-c3cc(F)c(F)c(F)c3)nn2)[C@@H](O)[C@@H](CO)O[C@H]1C(=O)N(c1cc(Cl)cc(Cl)c1)[C@@H]1CCC[C@H]1O [Example 1.1.2R, (2R,3R,4S,5R,6R)-N-(3,5-dichlorophenyl)-5-hydroxy-N-((1R,2R)-2-hydroxycyclopentyl)-6-(hydroxymethyl)-3-methoxy-4-(4-(3,4,5-trifluorophenyl)-1H-1,2,3-triazol-1-yl)tetrahydro-2H-pyran-2-carboxamide] | 104
